For five molecules, IC50 results are on record in ChEMBL document CHEMBL4342406, “Revealing quinquennial anticancer journey of morpholine: A SAR based review” (Eur J Med Chem, 2019).

For test [1], the target named is Epidermal growth factor receptor (Homo sapiens, UniProt P00533, T790M). Briefly: Inhibition of EGFR T790M mutant (unknown origin) incubated for 60 mins by ADP-Glo kinase assay. (ADP-Glo first removes unused ATP, then detects ADP through luciferase.)
Test [2] has as its system A549. Put plainly: Cytotoxicity against human A549 cells assessed as reduction in cell viability after 72 hrs by MTT assay. The format is functional, cell-based. The conditions noted are these: A549, 72 h.
Another test has as its system Lymphocyte. Briefly: Cytotoxicity against human lymphocytes assessed as reduction in cell viability after 72 hrs by MTT assay. The test is classed as cell-based. (In general: Tetrazolium dyes change colour on reduction, which living cells bring about.)
Another test deals with HT-29. Put plainly: Cytotoxicity against human HT-29 cells assessed as reduction in cell viability after 72 hrs by MTT assay. The following applies: HT-29, 72 h. The format is functional, cell-based.
Test [3] relates to MCF7. Briefly: Antiproliferative activity in human MCF7 cells by MTT assay. The format is functional, cell-based.
The test system of test [4] is A549. Put plainly: Antiproliferative activity in human A549 cells by MTT assay. The format is functional, cell-based.
In a further test the test system is BEL-7404 tumor cell line. Briefly: Antiproliferative activity in human Bel7404 cells by MTT assay. The format is functional, cell-based.
The next test concerns SMMC-7721. Briefly: Antiproliferative activity in human SMMC7721 cells after 72 hrs by MTS assay. The following applies: SMMC-7721, 72 h. The test is classed as functional, cell-based.
The test system of the next test is Bel-7402. Put plainly: Antiproliferative activity in human Bel7402 cells after 72 hrs by MTS assay. The test is classed as functional, cell-based. The following applies: Bel-7402, 72 h.
In the next test the test system is QGY-7703. Briefly: Antiproliferative activity in human QGY7703 cells after 72 hrs by MTS assay. The test is classed as functional, cell-based. The following applies: QGY-7703, 72 h.
The subject of test [5] is MCF7. Briefly: Cytotoxicity against human MCF7 cells assessed as reduction in cell viability incubated for 3 days by MTT assay. The conditions noted are these: MCF7, 72 h. The format is functional, cell-based.

Sequence of Epidermal growth factor receptor (P00533 25-1210 T790M limits assumed): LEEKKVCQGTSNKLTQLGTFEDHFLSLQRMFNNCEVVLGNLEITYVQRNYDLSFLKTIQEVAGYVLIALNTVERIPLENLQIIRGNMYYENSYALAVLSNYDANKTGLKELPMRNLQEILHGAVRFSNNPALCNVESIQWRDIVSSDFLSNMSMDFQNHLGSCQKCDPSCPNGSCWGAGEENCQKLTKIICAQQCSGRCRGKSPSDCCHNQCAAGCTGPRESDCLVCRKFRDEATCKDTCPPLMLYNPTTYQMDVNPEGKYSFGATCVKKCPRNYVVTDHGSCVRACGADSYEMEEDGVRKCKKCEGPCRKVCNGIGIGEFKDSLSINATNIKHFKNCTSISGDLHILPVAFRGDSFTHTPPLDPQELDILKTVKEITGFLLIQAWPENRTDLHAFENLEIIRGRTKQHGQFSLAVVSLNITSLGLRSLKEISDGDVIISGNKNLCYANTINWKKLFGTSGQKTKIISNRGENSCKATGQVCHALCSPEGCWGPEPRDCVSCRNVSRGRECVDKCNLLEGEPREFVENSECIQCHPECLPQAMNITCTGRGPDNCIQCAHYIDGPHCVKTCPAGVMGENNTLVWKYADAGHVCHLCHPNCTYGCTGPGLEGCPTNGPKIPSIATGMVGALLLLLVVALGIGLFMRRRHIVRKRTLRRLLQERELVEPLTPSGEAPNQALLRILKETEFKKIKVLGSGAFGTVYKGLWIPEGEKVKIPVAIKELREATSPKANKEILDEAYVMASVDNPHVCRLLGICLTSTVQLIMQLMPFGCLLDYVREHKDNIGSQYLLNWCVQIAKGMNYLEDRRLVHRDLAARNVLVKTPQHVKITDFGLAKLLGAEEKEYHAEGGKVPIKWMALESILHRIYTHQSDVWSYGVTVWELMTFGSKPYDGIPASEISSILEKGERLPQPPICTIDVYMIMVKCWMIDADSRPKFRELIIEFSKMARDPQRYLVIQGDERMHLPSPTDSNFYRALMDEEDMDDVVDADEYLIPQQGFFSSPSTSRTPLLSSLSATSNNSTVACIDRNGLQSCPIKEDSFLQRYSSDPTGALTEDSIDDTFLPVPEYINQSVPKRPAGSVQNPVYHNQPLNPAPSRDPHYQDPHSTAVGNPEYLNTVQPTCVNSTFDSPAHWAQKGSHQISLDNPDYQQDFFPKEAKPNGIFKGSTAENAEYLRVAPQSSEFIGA

One may read the IC50 as the concentration at which inhibition is half-maximal. In turn, `C=CC(=O)Nc1cccc(Nc2ncnc3cc(OC)c(OCCN4CCOCC4)cc23)c1` showed an IC50 in test [1] of 4.3 nM.

With `COc1ccc(Cn2cnc3c(cc(N4CCOCC4)c4ccccc43)c2=O)cc1`, the half-maximal inhibitory concentration (IC50) was 134 µM in the test on A549 [2], 175 µM in the test on Lymphocyte and 4.12 µM in the test with HT-29.

Turning to `CCCCCCCCCC[C@H](O)COCCOC[C@@H](O)CCCCCCCCCCCCCCN1CCOCC1`, the 50% inhibitory concentration (IC50) came out at 13 µM with MCF7 [3], 11.7 µM in the test on A549 [4] and 25.8 µM in the test with BEL-7404 tumor cell line.

On to `O=c1ccc(-c2cc(C(F)(F)F)c(N3CCOCC3)nn2)n[nH]1`, for which the values for the IC50 in the test on SMMC-7721, in the test on Bel-7402 and in the test on QGY-7703 were 123 nM, 285 nM and 178 nM, respectively.

In the case of `COc1c2ccoc2c(S(=O)(=O)N2CCOCC2)c2oc(C)c(C(C)=O)c(=O)c12`, in the test on MCF7 [5], the IC50 amounted to 125 nM.
